Measured values as given in publication PMC4572361, “Connecting proteins with drug-like compounds: Open source drug discovery workflows with BindingDB and KNIME” (Database: The Journal of Biological Databases and Curation, 2015).
Read-outs that look alike come from different tables or passages of the source.

Molecular target: T1, phospholipase A2
T1 construct: gene PLA2G1B; not described in the main text; reagent of the PubChem AID 588400 phospholipase counterscreen (possibly the PLA2 reporter enzyme of an ATG4B assay)
Assay: phospholipase inhibition assay (as PubChem AID […])
Format: biochemical, Homo sapiens

`Cc1c(Cl)cccc1Nc1ccccc1C(=O)O` [tolfenamic acid] was tested, and the IC50 (read-out: IC50) was 20 µM.

With `O=C(O)c1ccccc1Nc1cc(Cl)ccc1C(=O)O` [lobenzarit] the IC50 (read-out: no significant inhibition at concentrations up to 300 μM) was > 300 µM.
